Test [1] has as its system RENCA mouse kidney tumors. Briefly: RENCA kidney tumor model in BALB/c mice. Type of test: in vivo. The note with it: 300 μg i.p. bid for 21 days. An excerpt: FIGS. 6N-6O. […] Data are expressed as means±SEM. *P<0.05, **P<0.01 (Student's t-test). Mean survival time (MST) is increased in mice treated with the compound of Formula (III) as compared to Control group (FIG. 6O).
(§1) Furthermore, similar antitumor effects and increased MST using the compound of Formula (III) in two other in vivo tumor models were observed: Renca renal cell carcinoma and LLC1 lung cancer (FIGS. 6M-6Q). Thus, inhibition of Sb9 by the compound of Formula (III) has potent anti-tumor effects in a broad spectrum of tumors, including melanomas as well as breast, lung, and kidney tumors.

Another test has as its system LLC1 mouse lung tumors. Kind of test: LLC1 lung tumor model in C57BL/6 mice. Type of test: in vivo. The note with it: 300 μg i.p. bid for 21 days.
Description: FIGS. 6P-6Q. […] Data are expressed as means±SEM. *P<0.05 (Student's t-test). Mean survival time (MST) is increased in mice treated with the compound of Formula (III) as compared to Control group (FIG. 6Q).
as §1

In the next test the test system is 4T1 breast tumors. Kind of test: 4T1 breast tumor model in BALB/c mice. It is filed as in vivo, mouse. How it is done: Mice were anesthetized with isoflurane, and tumor cell lines (B16, A375, and 4T1) were gently injected subcutaneously in the flanks or mammary glands of mice. One hundred thousand cells (1×10^5 cells) were injected per mouse for most of the experiments. However, twenty-five thousand cells (25×10^3 cells) were injected per mouse for the experiments using the compound of Formula (III). Upon 4 hrs post-implantation, 300 μg of the compound of Formula (III) was administered twice a day intraperitoneally for 14 days. Tumor growth was monitored three times per week by digital caliper (Fisherbrand™ Traceable™ Digital Calipers).
Sb9 is highly expressed in human primary breast tumor cells (FIG. 6D) and in the stromal cells within the TME (FIGS. 6D-6E). Whether the compound of Formula (III) could be used to treat mice implanted with 4T1 breast tumor cells was therefore determined. […] Treatment with the compound of Formula (III) increased the median survival time (MST) of mice bearing 4T1 breast tumors and receiving treatment with the compound of Formula (III) as compared to mice bearing 4T1 breast tumors and not receiving treatment (MST=28 days vs MST=22 days, respectively) (FIG. 6G).
For mouse Breast Cancer model, 1×10^5 4T1 cells were subcutaneously implanted into the fourth mammary pad of BABL/c mice, and mice were separated randomly into three groups: Control, compound of Formula (I), and compound of Formula (II). In the compound of Formula (I) group, mice were treated with the compound of Formula (I) for 14 days consecutively ([…], i.p, twice a day). In the compound of Formula (II) group, mice were administrated the compound of Formula (II) 14 days consecutively (300 μg/mouse, i.p, twice a day). Tumor sizes were measured every 3 days from day 5 post-tumor implantation and calculated with formula length×width^2/2.

A further test relates to GrB. Kind of test: Grantoxilux assay of GrB activity in B16 cells. It is filed as cell-based, mouse. As to conditions: 200 μM, 24 h.
The test system of another test is B16-Sb9 KO tumors. Kind of test: B16-Sb9 KO tumors in Sb9 KO mice. Type of test: in vivo, mouse. As to conditions: Sb9 KO mice bearing B16-Sb9 KO tumors. How it is done: FIG. 5N. Tumor growth curve indicates no difference in antitumor effect of the compound of Formula (III) on B16-Sb9 KO tumors in Sb9 KO mice, as compared to the control group. Data are expressed as means±SEM.
To evaluate the off-target effects of the compound of Formula (III) to Sb9 proteins, the B16-Sb9 KO melanoma cells were treated with various concentrations of the compound of Formula (III). […] Furthermore, the antitumor effects of the compound of Formula (III) on the Sb9 KO mice bearing B16-Sb9 KO tumors, as compared to control group were not observed (FIG. 5N).

Another test deals with MSC-WT cells. Briefly: ECM fiber production by mesenchymal stem cells. It is filed as cell-based, mouse. How it is done: Isolation and harvest of murine MSCs from either C57BL/6-WT mice or Sb9 KO mice were performed according to the protocol as described previously (Zhu et al., 2010).
To investigate the effect of the compound of Formula (III) on the tumor stroma, MSC-WT cells were treated with the compound of Formula (III) for 48 hrs.

The test system of the next test is B16 melanoma cells. Kind of test: Caspase-3 activity assay (EnzChek Caspase-3 Assay Kit), caspase-3 induction in tumor cells. As to conditions: 200 μM. Type of test: cell-based, mouse. The essentials:
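B16 melanoma cells exposed to compounds for 24 h, lysed on ice 30 min, and lysate incubated with Z-DEVD-R110 substrate about 30 min at room temperature. Fluorescence read at ~496/520 nm against untreated-cell and no-enzyme controls; caspase-3 induction serves as surrogate for GrB activity from Sb9 inhibition.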

The structures appear in SMILES notation.

On to `O=C(O)c1ccc2ncoc2c1` [Formula (III), 1,3-benzoxazole-6-carboxylic acid], for which the “Mean survival time (MST) vs Control” value (in test [1]; in the test on LLC1 mouse lung tumors) was “increased” throughout. In addition, the “tumor growth vs control” value (in test [1] (male BALB/c mice); in the test on LLC1 mouse lung tumors (C57BL/6-WT mice)) was “significantly slower growth” throughout. Also, the “levels of stromal cells and CAFs in breast tumors” value in the test on 4T1 breast tumors (17 days post-implantation) is “reduced levels”. Besides, the “reduction of size of 4T1-derived tumors vs control” value with 4T1 breast tumors (BALB/c mice, 300 μg i.p. bid for 14 days) is 2.5 fold. In the test on 4T1 breast tumors (mice bearing 4T1 breast tumors, 300 μg i.p. bid for 14 days), the “median survival time (MST)” value was 28 days. Moreover, in the test with GrB, the “activity of GrB” value was “increased activity of GrB”. In the test on B16-Sb9 KO tumors, the “antitumor effects vs control group” value is on record as “not observed”. Moreover, in the test on MSC-WT cells (48 hrs treatment), the “production of fibronectin and collagen I by MSC-WT cells” value was “reduced the production of fibronectin and collagen I”. Besides, the “expression of fibronectin and collagen I by MSC-WT cells co-cultured with B16 cells” value in the test on MSC-WT cells (co-culture with B16-GFP cells) was “decreased the expression of fibronectin and collagen I”. Also, the “increase in caspase-3 activity compared to 3,4-dihydroxybenzoic acid” value in the test on B16 melanoma cells (24 h) is listed as around 4 fold. Moreover, the “GrB-mediated apoptosis (caspase-3 activity)” value with B16 melanoma cells (GrB inhibitor (368050) 10 μM) is recorded as “induced GrB-mediated apoptosis”.

The values above are taken from US20230255906A1, “Targeting Serpin B9 in Cancer” (The Brigham and Women`s Hospital, Inc., priority 2020, published 2023).
